From a melting point compilation (Tetko et al.; mined from patent text by program, amines drawn as free bases though some values may be those of a salt)

Row | SMILES | melting point [°C]
1 | O=C(O)Cc1c(C(=O)c2ccc(Cl)cc2)[nH]c2ccc(OC(F)(F)F)cc12 | 195
2 | CCOC(=O)c1cc2cc(NS(=O)(=O)CCCCl)ccc2[nH]1 | 195 to 196
3 | O=C(O)[C@]1(c2ccc(Br)cc2)CC1(c1ccccc1)c1ccccc1 | 180 to 182
4 | CCCCOc1nc(N)c2nc(OC)n(CCCBr)c2n1 | 200 to 201
5 | Cc1c(CCCCCCCCC(=O)O)cccc1C(=O)c1ccc(Cl)cc1 | 64
6 | O=C1CCCN1C1=NC(CF)(CF)Oc2ccc([N+](=O)[O-])cc21 | 195 to 198
7 | O=C(O)Cc1cc(Br)ccc1OCCCc1ccccc1 | 79.5 to 81
8 | CN(C(=O)Nc1ccccc1)C1CCCCC1 | 195 to 197
9 | CCOC(=O)C(=O)Nc1ccc(C#N)cc1 | 188
10 | O=C(O)c1ccc(Sc2ccc(O)cc2)cc1 | 196 to 200
11 | O=C(Nc1ccc(S(=O)(=O)Cl)cc1)c1ccccc1 | 176 to 178
12 | Cc1ccc(NC(=O)C2C(=O)C3CC[C@](C)(C2=O)C3(C)C)cc1 (some centres not stated) | 80 to 82
13 | CCCCNC(=O)OC1c2cc(Cl)ccc2C(=O)N1c1ccc2ccc(Cl)nc2n1 (configuration not stated) | 228 to 230
14 | CCCCCCCCCCCCCCC(CCCCCCCCCCCCCC)C(=O)O | 73.5 to 75
15 | C(=C\c1nc2ccccc2n1-c1ccncc1)/c1ccccc1 | 168 to 169
16 | CCOC(=O)C1=C(C)NC(CSC(=N)N)=C(C(=O)OCC)C1c1cccc([N+](=O)[O-])c1 (single isomer, unassigned; (+)) | 124 to 126
17 | CCCCNC(=O)NS(=O)(=O)c1c(C(=O)OCC)cnn1-c1ccc2ccccc2n1 | 140 to 142
18 | CCS(=O)(=O)N=CNCc1cccc(-c2csc(N=C(N)N)n2)n1 | 201
19 | NC(=S)c1cccc2c1CCCC2=O | 200 to 205
20 | O=C1N(N2CCCCC2)c2ccccc2C1(Cc1ccccc1)Cc1ccccc1 | 94 to 96
21 | Cn1c(=O)c2c(ncn2CCCCCCO)n(C)c1=O | 80
22 | Fc1ccc(-c2ccn(C3CCNC3)c2-c2ccncc2)cc1 (configuration not stated) | 145 to 147
23 | CC(=O)C(=Cc1cccnc1)C(C)=O | 52 to 57
24 | O=[N+]([O-])c1ccccc1NCC12CC3CC(CC(C3)C1)C2 | 106 to 109

Row | SMILES | melting point [°C]
25 | O=C(NNS(=O)(=O)c1ccccc1)c1cc2cccc(Cl)c2o1 | 179 to 180
26 | O=c1[nH]c2cc(F)ccc2n(C2CCCCC2)c1=O | 290
27 | N#CCc1nn(-c2ccccn2)c(N)c1C#N | 178 to 179
28 | O=S(=O)(Cl)C=Cc1c(Cl)cccc1Cl | 88 to 90
29 | OCC(O)CNC(c1ccccc1)C(O)c1ccccc1 (configuration not stated) | 161 to 163
30 | c1ccc(-c2cn3cnnc3cn2)cc1 | 231 to 233
31 | C/C(=C/C(=O)N(C)O)c1ccn(-c2c(C)cccc2C)c1 | 158 to 160
32 | NC(=O)C(O)C1OC(n2cnc3c(N)ncnc32)C(O)C1O (configuration not stated) | 220 to 222
33 | O=[N+]([O-])c1ccc(-c2oncc2CO)cc1 | 170 to 171
34 | CC(C)(C)OC(=O)CC(NC(=O)CCNC(=O)Cc1ccc(C#N)cc1)C(=O)NC(Cc1ccccc1)C(=O)OC(C)(C)C (configuration not stated) | 93 to 94
35 | C=CC1CC2=CC(=O)CCC2(C)C2CCC3(C)C(CCC3(C)O)C12 (configuration not stated) | 116 to 117
36 | N#Cc1ccc(C=Cc2ccc(-c3cc4ccccc4o3)cc2)cc1 | 314 to 315
37 | Clc1nc(C2CC2)nc(N2CCOCC2)n1 | 99 to 100
38 | CCc1nc2c(Cl)cc(F)c([N+](=O)[O-])c2s1 | 70 to 73
39 | C[Si](C)(C)c1cc(C(F)(F)F)ccc1OC1CCCCO1 (configuration not stated) | 43 to 46
40 | O=C(CN1CCN(c2cnccn2)CC1)N1CCC(CO)(c2cccc(C(F)(F)F)c2)CC1 | 223
41 | CCCCCCCCCCN(O)C(=O)N(C)C | 44 to 45
42 | O=C(CC(c1ccccc1)(c1ccccc1)c1ccccc1)N1CCC(O)(Cc2ccccc2)CC1 | 150 to 166
43 | CCCCCCCCCCCC/C(=C\C=C\C(=O)O)c1ccc(OC)cc1 | 85 to 88
44 | CCN(CC)c1nc(C)nc(N)n1 | 125 to 127
45 | CC(=O)OCC1OC(n2ccc(=O)[nH]c2=O)C(Br)C1OC(C)=O (configuration not stated) | 69 to 77
46 | COCCOC/C(=C\S(=O)(=O)c1ccc(C)cc1)C(=O)OC(C)(C)C | 40 to 41
47 | [N-]=[N+]=NCc1ccc(C(=O)c2c(Cl)cccc2Cl)cc1 | 92 to 94

Next, values leading:

Row | melting point [°C] | SMILES
48 | 176 to 177 | Cn1cc(Oc2ccccc2)c(=O)c(-c2ccccc2)c1
49 | 201 | CCOC(=O)C1=C(C)Nc2nc(N3CCOCC3)nc(N3CCOCC3)c2C1c1ccccc1[N+](=O)[O-] (configuration not stated)
50 | 185 | COc1cccc(Cl)c1-c1cc2c(c3c1C(=O)NC3=O)c1cc(O)ccc1n2CCN1CCOCC1
51 | 274 to 276 | NC(=S)c1cc2c(cn1)[nH]c1ccccc12
52 | 85 to 87 | COc1ccc(CCN(C)CCCC(C)(C(=O)OC(C)C)c2ccc(OC)c(OC)c2)cc1OC (configuration not stated)
53 | 186 to 188 | COc1ccccc1N1CCN(CCn2c(=O)c3cscc3n(CCC(=O)O)c2=O)CC1
54 | 142 to 144 | CNC(=O)C(Cc1ccc(OC)cc1)NC(=O)C(=CCC(=O)OC)CC(C)C (configuration not stated)
55 | 162 to 164 | CC1CCc2c(ccc(F)c2-n2ccnc2)N1 (configuration not stated)
56 | 293 to 295 | Cc1nc2cccc(N)c2c(=O)n1C1CCC(=O)NC1=O (configuration not stated)
57 | 112 to 114 | O=C(Nc1ccc(Oc2ccnc(NC3CCC3)n2)c2ccccc12)c1cc(F)cc(N2CCCCC2)c1
58 | 273 to 274 | CNC(=O)c1ccc(Nc2nc(O[C@H]3CCOC3)c3c(-c4ccc5nc(C)oc5c4)c[nH]c3n2)c(C)c1
59 | 265 to 266 | CC(C)NC(=O)Nc1c(C(=O)c2ccccc2)[nH]c2cc(Cl)ccc12
60 | 101 to 102 | CCOC(=O)[C@H](C)NCC(=O)Nc1c2c(nc3ccccc13)CCCC2
61 | 151 to 152 | CN1CCC(c2c[nH]c3ccc(NC(=O)c4ccc(Cl)cc4Cl)nc23)CC1
62 | 180 to 183 | Cc1cc(C)cc(C(=O)NC(C#N)n2cccn2)c1 (configuration not stated)
63 | 110 to 113 | Cn1ccnc1Sc1ccc(Nc2c(C#N)cnc3cc(-c4csc(CN5CCOCC5)c4)ccc23)cc1Cl
64 | 72 to 74 | CCCCS(=O)(=O)On1nnc2ccc(Cl)cc21
65 | 225 to 227 | Cc1ccc(OCc2nc(N)c3nccnc3n2)cc1
66 | 78 to 79 | CS(=O)(=O)Nc1ccc(CO)cc1Sc1ccc(F)cc1F
67 | 112 | CCOC(=O)c1cc(OCCC2CCN(c3ccc(Cl)nn3)CC2)cs1
68 | 118 | Clc1ccc(-c2ccc(C(Cl)Cn3cncn3)cc2)cc1 (configuration not stated)
69 | 74 to 76 | CCOC(=O)C1=Cc2c(OC)ccc(OC)c2CC1
70 | 140 to 145 | O=C(c1ccccc1)N1CCc2[nH]c3ccc(-c4ccccc4)cc3c2CC1
71 | 128 to 129 | COc1cc2ncnc(N3CCc4ccc(C(C)C)cc43)c2cc1OC
72 | 154 | CC(C)CC(=O)OC1c2ccccc2C(=O)N1c1ccc2ccc(Cl)nc2n1 (configuration not stated)
73 | 111 to 114 | CONC(=O)CC(C#Cc1ccccc1)c1ccc(OC)c(OC2CCCC2)c1 (racemic)
74 | 95 to 96 | CCOC(=O)c1ccc(C)c(Nc2nccc(-c3cccnc3)n2)c1
75 | 93 to 94 | COc1ccc2c(c1)CC(=O)N2C

Row | melting point [°C] | SMILES
76 | 124 to 126 | CC(C)(C)OC(=O)Cn1c(-c2ccccn2)nc2cccnc21
77 | 125 to 128 | CCC(=O)c1cnc2c(O)cccc2c1Nc1ccccc1C
78 | 123 to 125 | COc1ccc(N2CCN(C(=O)CC3C=Cc4ccccc43)CC2)cc1 (configuration not stated)
79 | > 300 | O=C(O)c1cc(C#Cc2ccc(C(=O)O)c(C(=O)O)c2)cc(C(=O)O)n1
80 | 76 to 77 | CC(C)(C)[Si](C)(C)Oc1ccc(CON2C(=O)c3ccccc3C2=O)cc1
81 | 136 to 137 | CC(C)(C)c1cccc(C[C@H]2NC(=O)O[C@H]2c2cccc(Cl)c2)c1 (racemic)
82 | 234 to 235 | CC12CCCc3cc(N(CC4CC4)c4ccc(C(=O)O)cc4)cc(c31)CCC2
83 | 174 to 181 | CS(=O)(=O)c1ccc(-n2nc(C(F)(F)F)nc2-c2ccc(Br)cc2)nn1
84 | 128 to 130 | Oc1c(Br)cc(-c2cccc3sc4ccccc4c23)cc1Br
85 | 236 to 238 | O=C(Nc1nc(-c2ccccc2)nc2[nH]ccc12)[C@@H]1CCCN1
86 | 122 to 124 | Cc1ccc2c(c1)C(O)(c1ccc3c(c1)OCO3)C(=O)N2Cc1ccc(Cl)cc1 (configuration not stated)
87 | > 250 | NCC1Cc2cc(-c3cccc(Cl)c3)cc(F)c2O1 (configuration not stated)
88 | 155 to 160 | O=C(O)c1ccc2c(c1)CCCC2NC(=O)c1cccc(Oc2ccccc2)c1 (configuration not stated)
89 | 192 | Cc1nc(N2CCN(Cc3ccccc3)CC2)ncc1C(=O)O
90 | 248 to 249 | Cc1nnc(-c2sc(N3CCN(Cc4ccc(F)cc4)C3=O)nc2C)[nH]1
91 | 250 to 252 | COc1ccccc1C(Cc1ccccc1)(Cn1cncn1)C(=O)O (configuration not stated)
92 | 260 to 263 | Cn1cnc(S(=O)(=O)N2CCn3c(c(C(N)=O)c(Cl)c3-c3ccccc3)C2)c1
93 | 88 | Cc1ccc(C#Cc2cccc(N)c2)cc1
94 | 82 to 84 | COCOc1cccc(NC(=O)OC(C)(C)C)c1I
95 | 110 to 112 | CN1CCN(CCCCCNc2ncc3cc(-c4c(Cl)cccc4Cl)c(=O)n(C)c3n2)CC1
96 | 201 to 204 | N#Cc1ccc(Oc2ccc3ccc(Oc4ccc(C#N)c(C#N)c4)cc3c2)cc1C#N
97 | 168 to 173 | CCCCc1ncc(C(=O)OCC)c(=O)n1Cc1ccc(-c2ccccc2-c2nnn[nH]2)cc1
98 | 204 to 205 | CN1CCN(c2cccc3c2C[C@H](NC(=O)c2ccc(Cl)cc2)CC3)CC1
99 | 108 to 111 | CC(=O)Nc1c(-c2c(F)cc(F)cc2F)c(Cl)nc2ncnn12
100 | 102 | Cc1ccc(-c2nccc3c(CC#N)cccc23)cc1
101 | 126 | CC(C)Oc1cccc(C(CC(=O)O)NS(=O)(=O)c2ccc3ccccc3c2)c1 (configuration not stated)
102 | > 275 | COc1ccc(-c2nc(N)n3nc(-c4ccco4)nc3n2)cc1
